# Experimental data published in ChEMBL document CHEMBL1201862, “PubChem BioAssay data set” (2004).
# The source made the active and inactive calls. Numbered stars: 1 amine (or outer) side, 2 acyl side, 3 side chain; on linkers, the order of the positions; unused ones are H or OH. Square brackets hold non-standard residues; d marks the D form. Peptide text beside a SMILES is read from it. ξ: configuration not given here. X1 = CCCCCCC[C@H](O)C[C@@H](N[*:1])[C@@H](O)C(=O)[*:2]; X3 = COc1ccc(CCCC(N[*:1])C(=O)[*:2])cc1; ξThr(3R) = C[C@@H](O)C(N)C(=O)O; NMeN = CN[C@@H](CC(N)=O)C(=O)O; X2 = C/C=C(/N[*:1])C(=O)[*:2]; Dhb = C/C=C(\N)C(=O)O; Sar = CNCC(=O)O
# Tests used:
# [1] = biological target: T1, Short transient receptor potential channel 4 (Mus musculus, UniProt Q9QUQ5); assay: calcium entry via TRPC4 opening agents – cell-based, HEK293 TRPC4/mu-opioid, Fluo-4 calcium, dose response (AID 434937); assay type: functional
# T1 sequence (Q9QUQ5 whole entry): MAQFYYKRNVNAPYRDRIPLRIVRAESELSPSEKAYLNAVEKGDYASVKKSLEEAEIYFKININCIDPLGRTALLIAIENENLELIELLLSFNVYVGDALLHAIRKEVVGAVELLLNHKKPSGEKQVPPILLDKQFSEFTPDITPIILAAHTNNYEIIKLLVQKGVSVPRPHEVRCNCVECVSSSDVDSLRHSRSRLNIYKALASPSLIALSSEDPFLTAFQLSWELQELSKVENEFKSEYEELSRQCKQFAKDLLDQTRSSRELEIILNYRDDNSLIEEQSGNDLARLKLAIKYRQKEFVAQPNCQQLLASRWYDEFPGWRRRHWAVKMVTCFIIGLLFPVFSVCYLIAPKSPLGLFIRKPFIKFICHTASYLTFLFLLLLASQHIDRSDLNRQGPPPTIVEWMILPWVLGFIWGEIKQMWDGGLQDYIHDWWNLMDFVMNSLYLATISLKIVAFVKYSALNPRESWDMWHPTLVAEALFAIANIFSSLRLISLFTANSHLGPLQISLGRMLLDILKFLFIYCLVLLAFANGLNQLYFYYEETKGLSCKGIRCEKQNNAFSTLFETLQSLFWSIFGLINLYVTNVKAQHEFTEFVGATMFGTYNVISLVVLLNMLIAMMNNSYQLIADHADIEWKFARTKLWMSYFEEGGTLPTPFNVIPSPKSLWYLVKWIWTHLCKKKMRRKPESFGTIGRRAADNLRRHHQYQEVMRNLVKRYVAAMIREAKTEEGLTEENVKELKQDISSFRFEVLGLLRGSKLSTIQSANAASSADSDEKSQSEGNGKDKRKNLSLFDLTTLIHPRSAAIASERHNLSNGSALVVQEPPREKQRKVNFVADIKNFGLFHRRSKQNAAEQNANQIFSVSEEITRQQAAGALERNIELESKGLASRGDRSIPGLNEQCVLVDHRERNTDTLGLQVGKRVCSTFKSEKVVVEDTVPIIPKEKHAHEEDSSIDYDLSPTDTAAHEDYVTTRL
# [2] = blockers of HIV-1 envelope-mediated cell-cell fusion – cherry-pick, dose response (AID 652057); assay type: functional, cell-based
# [3] = viability loss in CEM21 cells – cell-based, CellTiter-Glo luminescence, cherry-picked, cytotoxicity control for viral fusion inhibitor project, dose response (AID 652042); assay type: functional;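 further: potency for signal decrease meaning cytotoxicity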
# [4] = blockers of HIV-1 ZM109 envelope-driven cell-cell fusion – HeLa effector, CEM target cells, luciferase, cherry-pick, dose response (AID 652058); assay type: functional, cell-based;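 further: luciferase signal from HIV-1 Env mediated cell-cell fusion of effector and target cells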
# [5] = off-target signal loss in HeLa-CEM21 co-culture – HeLa F-luc CTL cells, cherry-picked, counter-screen for HIV-1 Env fusion inhibitor project, dose response (AID 652040); assay type: functional, cell-based;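 further: potency for signal decrease marking cytotoxic or nonspecific inhibition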
# [6] = HIV-1 AD8 envelope cell-cell fusion blockers – cherry-pick, dose response (AID 652062); assay type: functional, cell-based;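 further: luciferase signal from cell-cell fusion driven by HIV-1 clade B AD8 Env; potency is for inhibitors of fusion seen as a drop in luminescence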
# Albumin = Albumin (Bos taurus, UniProt P02769); assay: Counterscreen for inhibitors of T-cell receptor (TCR)-CD3 interaction: Fluorescence-based biochemical high throughput dose response assay to identify inhibitors of T-cell receptor (TCR)-CD3 interaction using a TAMRA-labeled BSA probe.; assay type: functional
# [7] = biological target: T2, Heat shock factor protein 1 (Mus musculus, UniProt P38532); assay: decrease of HSF1-responsive luciferase luminescence – cell-based, NIH3T3, dose retest, confirmation (AID 2382); assay type: functional;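 further: NIH3T3 fibroblasts with HSF1-driven luciferase reporter stressed by proteasome inhibitor MG132; luminescence from HSF1-driven luciferase expression after 8 hours of MG132 stress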
# T2 sequence (P38532 whole entry): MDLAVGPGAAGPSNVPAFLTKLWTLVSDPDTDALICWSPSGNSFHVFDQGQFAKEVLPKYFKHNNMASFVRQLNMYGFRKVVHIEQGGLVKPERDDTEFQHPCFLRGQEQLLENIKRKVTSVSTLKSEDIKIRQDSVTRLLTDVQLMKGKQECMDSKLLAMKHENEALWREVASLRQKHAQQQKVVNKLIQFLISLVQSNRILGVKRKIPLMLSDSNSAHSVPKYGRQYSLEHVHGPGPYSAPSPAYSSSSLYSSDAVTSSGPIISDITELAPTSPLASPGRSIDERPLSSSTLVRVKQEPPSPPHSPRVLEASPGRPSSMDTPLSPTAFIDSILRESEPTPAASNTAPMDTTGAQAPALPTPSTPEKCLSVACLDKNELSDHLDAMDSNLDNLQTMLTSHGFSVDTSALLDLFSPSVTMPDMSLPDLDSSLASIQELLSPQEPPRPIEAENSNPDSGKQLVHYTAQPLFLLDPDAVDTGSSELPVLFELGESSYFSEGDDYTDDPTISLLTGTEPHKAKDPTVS
# cells [8] = assay type: functional
# [9] = reduction of Shn3 3'UTR-driven luciferase in osteoblasts – cell-based, Clone20 osteoblasts, firefly luciferase, cherry-picked, dose response (AID 624132); assay type: functional;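 further: firefly luciferase luminescence from reporter carrying the Shn3 3'UTR in osteoblasts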
# [10] = loss of viability in HepG2 cells – cell-based, CellTiter-Glo, cherry-picked, cytotoxicity control for Shn3 inhibitor project, dose response (AID 624134); assay type: functional
# Protein Wnt-3a = Protein Wnt-3a (Mus musculus, UniProt P27467); assay: antagonism of Wnt3a pathway luciferase reporter – Wnt-LIGHT cells, luminescence, selectivity assay for Gli-SUFU antagonist project, dose response (AID 651570); assay type: functional; conditions: read-out: IC50_Mean;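 further: Wnt-LIGHT reporter cells stimulated with conditioned medium from Wnt3a-producing cells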
# [11] = luciferase reporter signal suppression in cells – H4 neuroglioma cells, luminescence, dose response (AID 1990); assay type: functional, cell-based
# [12] = Luminescence Cell-Based Dose Response HTS to Identify Inhibitors of 5'UTR Stem-Loop Driven Prion Protein mRNA Translation in H4 Neuroglioblastoma Cells. [Related pubchem assays: 1827 (Project Summary), 1813 (Primary HTS)]; assay type: functional
# [13] = alpha-synuclein stem-loop luciferase translation blockers – H4 neuroglioma cells, luminescence, confirmation (AID 1988); assay type: functional, cell-based
# INS1 = assay: INS-1E survival protection against cytokine death – cell-based, luminescence, retest, dose response (AID 449756); assay type: functional; conditions: Rattus norvegicus;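 further: cell death triggered by IL-1 beta plus TNF-alpha plus IFN-gamma mixture; protective hits raise ATP signal compared with cytokine alone wells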
# H9c2 = assay: cells; assay type: functional, cell-based; conditions: Rattus norvegicus, H9c2, Myocardium;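 further: confirmatory concentration-response retest of ultra-high-throughput screening hits for modulation of myocardial damage; cell death induced by hydrogen peroxide oxidative stress; compound pretreatment for 60 min then peroxide exposure for 2 h; potency is for protecting the cells against peroxide damage rather than for killing them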
# [14] = non-specific 3'UTR reporter inhibition in Clone20-Shn3RL – cell-based, Renilla luciferase, cherry-picked, counter-screen for Shn3 inhibitor project, dose response (AID 624133); assay type: functional
# cells [15] = assay type: functional, cell-based
# cells [16] = assay type: functional, cell-based; remark: listed apart in the source
# [17] = biological target: T3, Long-chain-fatty-acid--AMP ligase FadD28 (Mycobacterium tuberculosis, UniProt P9WQ59); assay: Fluorescence polarization aasay to screen for inhibitors that compete for the binding of FadD28 to a bisubstrate Measured in Biochemical System Using Plate Reader - 2147-01_Inhibitor_Dose_CherryPick_Activity.; assay type: functional, Mycobacterium tuberculosis H37Rv
# T3 sequence (P9WQ59 whole entry): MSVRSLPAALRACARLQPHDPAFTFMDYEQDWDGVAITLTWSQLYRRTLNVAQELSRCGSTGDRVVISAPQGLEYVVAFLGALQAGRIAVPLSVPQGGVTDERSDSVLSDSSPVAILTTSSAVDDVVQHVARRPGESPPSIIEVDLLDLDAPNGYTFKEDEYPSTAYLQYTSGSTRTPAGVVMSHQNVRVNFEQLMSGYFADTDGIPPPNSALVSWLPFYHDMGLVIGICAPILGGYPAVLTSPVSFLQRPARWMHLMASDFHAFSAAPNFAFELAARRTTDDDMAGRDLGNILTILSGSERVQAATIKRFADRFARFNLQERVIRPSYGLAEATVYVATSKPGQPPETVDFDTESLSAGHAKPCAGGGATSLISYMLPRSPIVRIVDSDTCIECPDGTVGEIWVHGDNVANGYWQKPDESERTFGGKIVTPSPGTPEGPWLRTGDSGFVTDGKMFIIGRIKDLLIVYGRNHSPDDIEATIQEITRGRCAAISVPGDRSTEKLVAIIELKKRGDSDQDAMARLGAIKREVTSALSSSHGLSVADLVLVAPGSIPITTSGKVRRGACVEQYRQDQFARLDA
# [18] = decrease of insulin promoter-GFP reporter – imaging, high-content screening, mouse beta cells (AID 1628); assay type: functional; conditions: MIN6
# [19] = MIN6 cell viability loss – mouse insulinoma, cytotoxicity control, dose response (AID 2122); assay type: functional;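 further: confirmatory high-throughput counterscreen run to flag cytotoxic compounds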
# [20] = biological target: T1, Short transient receptor potential channel 4; assay: block of DAMGO-driven TRPC4 calcium entry – cell-based, HEK293 TRPC4/mu-opioid, Fluo-4 calcium, dose response (AID 434942); assay type: functional;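 further: potency of inhibitors blocking the TRPC4 calcium response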
# Chain of Protein Wnt-3a (P27467 whole entry): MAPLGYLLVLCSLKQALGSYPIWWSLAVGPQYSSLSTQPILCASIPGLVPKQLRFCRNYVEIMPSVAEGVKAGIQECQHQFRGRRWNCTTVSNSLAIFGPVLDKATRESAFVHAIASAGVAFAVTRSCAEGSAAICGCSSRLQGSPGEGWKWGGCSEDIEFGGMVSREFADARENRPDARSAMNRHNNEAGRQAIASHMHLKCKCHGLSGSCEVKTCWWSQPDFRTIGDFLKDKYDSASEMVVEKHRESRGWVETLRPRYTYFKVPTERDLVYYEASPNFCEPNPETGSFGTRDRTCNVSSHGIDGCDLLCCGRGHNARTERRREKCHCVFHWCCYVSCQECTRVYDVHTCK
# Chain of Albumin (P02769 whole entry): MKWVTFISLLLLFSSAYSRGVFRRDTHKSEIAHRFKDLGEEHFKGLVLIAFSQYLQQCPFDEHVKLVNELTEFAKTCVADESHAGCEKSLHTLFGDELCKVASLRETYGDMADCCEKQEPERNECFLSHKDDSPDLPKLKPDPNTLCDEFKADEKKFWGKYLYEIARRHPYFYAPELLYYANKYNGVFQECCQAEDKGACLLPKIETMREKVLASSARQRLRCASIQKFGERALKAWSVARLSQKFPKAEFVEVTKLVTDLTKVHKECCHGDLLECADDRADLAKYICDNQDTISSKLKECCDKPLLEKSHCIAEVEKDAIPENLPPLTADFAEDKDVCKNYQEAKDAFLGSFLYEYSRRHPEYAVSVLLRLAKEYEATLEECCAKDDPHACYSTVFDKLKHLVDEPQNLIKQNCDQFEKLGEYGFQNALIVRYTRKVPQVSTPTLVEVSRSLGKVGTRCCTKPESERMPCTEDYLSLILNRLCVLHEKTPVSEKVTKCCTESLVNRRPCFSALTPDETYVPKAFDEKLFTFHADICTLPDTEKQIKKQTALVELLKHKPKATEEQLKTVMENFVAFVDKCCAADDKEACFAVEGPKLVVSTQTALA
structure (smiles),measurement,setting,value
CCOc1cc(CNCCc2c[nH]c3ccccc23)cc(Cl)c1OC,EC50,[1],3.35 µM (active)
same,AC50,[2],1.77 µM (active)
same,AC50,[3],21.5 µM (active)
same,AC50,[4],0.843 µM (active)
same,AC50,[5],2.85 µM (active)
same,AC50,[6],5.22 µM (active)
Cc1ccc(/C=C2\SC(=S)N(CCC(=O)NNC(=O)c3ccccc3O)C2=O)cc1,IC50,Albumin,> 94.1 µM (inactive)
Cc1cc(Cl)ccc1OCC(=O)N1CCCN(C(=O)COc2ccc(Cl)cc2C)CC1,AC50,[2],1.98 µM (active)
same,AC50,[3],67.3 µM (active)
same,AC50,[4],2.8 µM (active)
same,AC50,[5],2.71 µM (active)
same,AC50,[6],2.45 µM (active)
COc1ccc(CN2CCC(C(=O)Nc3ccc(Oc4cccnc4)cc3)CC2)c(C)c1C,EC50,[7],> 195 µM (not active)
same,IC50,cells [8],10.3 µM (active)
same,AC50,[9],3.68 µM (active)
same,AC50,[10],12.9 µM (active)
same,IC50,Protein Wnt-3a,5.34 µM (active)
O=C(CCN1C(=O)/C(=C\c2ccccc2)SC1=S)NNC(=O)c1ccccc1O,IC50,Albumin,> 94.1 µM (inactive)
COc1ccc2nc(Nc3nc(O)cc(CSc4nc5ccccc5[nH]4)n3)nc(C)c2c1,EC50,[11],5.63 µM (active)
same,EC50,[12],10.2 µM (active)
same,EC50,[13],10.2 µM (active)
same,AC50,INS1,20.5 µM (active)
same,IC50,H9c2,> 79 µM (inactive)
same,AC50,[2],2.16 µM (active)
same,AC50,[3],5.77 µM (active)
same,AC50,[4],3.57 µM (active)
same,AC50,[5],3.06 µM (active)
same,AC50,[6],4 µM (active)
CCCCn1c(CN(C)Cc2ccccc2)nc2c1c(=O)n(C)c(=O)n2C,AC50,[9],2.38 µM (active)
same,AC50,[10],68.8 µM (active)
same,AC50,[14],2.08 µM (active)
same,IC50,Protein Wnt-3a,4.51 µM (active)
same,AC50,[6],4.78 µM (active)
CCOC(=O)C(NCCc1ccccc1)(NC(C)=O)C(F)(F)F (stereo not drawn),IC50,cells [15],> 29.9 µM (inactive)
same,EC50,cells [16],> 29.9 µM (inactive)
COc1ccc(-c2nnn(CC(=O)c3c[nH]c4ccccc34)n2)cc1OC,AC50,[17],> 100 µM (inactive)
COc1ccc(-c2nn(C)c(=O)c3ccccc23)cc1NC(=O)COc1ccccc1,AC50,[3],42.7 µM (active)
same,AC50,[5],46.2 µM (active)
COCCn1c(CN2CCC(Cc3ccccc3)CC2)nc2c1c(=O)n(C)c(=O)n2C,IC50,[18],0.597 µM (active)
same,IC50,[19],0.355 µM (active)
same,IC50,Protein Wnt-3a,2.11 µM (active)
Cc1cccc(NC(=O)CN2C(=O)N/C(=C/c3cc(C)n(-c4ccncc4)c3C)C2=O)c1,AC50,[17],18.7 µM (active)
O=C(CNC(=O)c1ccccc1Cl)N/N=C/C=C/c1ccccc1,IC50,cells [15],> 29.9 µM (inactive)
same,EC50,cells [16],> 29.9 µM (inactive)
CC1Oc2ccccc2C=C1/C=N/Nc1ccc(C(=O)O)cc1 (stereo not drawn),EC50,[20],2.99 µM (active)
same,AC50,[17],34.2 µM (active)
O=C(CNC(=O)c1ccc([N+](=O)[O-])cc1)N/N=C/c1c[nH]c2ccccc12,AC50,[17],30.2 µM (active)
C/C=C1\NC(=O)[C@H](CC(N)=O)N(C)C(=O)C([C@@H](C)O)NC(=O)C(CCCc2ccc(OC)cc2)NC(=O)[C@H](C(C)C)NC(=O)/C(=C\C)NC(=O)[C@H](O)[C@@H](C[C@@H](O)CCCCCCC)NC(=O)[C@H](C)NC(=O)CN(C)C(=O)[C@H](CCC(N)=O)NC1=O (stereo partly drawn) (cyclo(A[X1][X2]V[X3][ξThr(3R)][NMeN][Dhb]Q[Sar])),AC50,[17],> 100 µM (inactive)
